Test results published in patent US20150224190A1, “Combination of a phosphoinositide 3-kinase inhibitor and an inhibitor of the IL-8/CXCR interaction” (priority 2012, published 2015).

Experiments:
pS6 = assay: Target inhibition after single doses: pS6 levels in breast cancer lines; type: cell-based, human; details: up to 20 hours after treatment, MDA 468, MDA 231 LM2 and mouse 4T-1 breast cancer lines
Method: MDA231, lung metastatic subline MDA231 LM2 (Minn et al., 2005) and SUM159 human breast cancer cells, as well as the Balb/c tumor-derived mammary cancer lines 4T-1 and 168FARN (Aslakson and Miller, 1992), were propagated as previously described. All other cell lines were obtained from and were cultured according to the protocols of ATCC. For treatment with inhibitors, cells were synchronized without serum overnight and then supplemented with culture medium containing the inhibitor(s). For experiments with doxycycline-inducible shRNAs, 500 ng/ml of doxycycline (Sigma) was added to the medium and experiments performed 48 h later. Cell viability assays, cell cycle and cell death measurements were performed at 0.5% FCS in order to avoid masking effects of growth factors present under full-serum conditions.
Cells for Western Blotting and ELISA were lysed with RIPA buffer. […]
The present inventors applied single doses of COMPOUND A, a dual PI3K and mTOR inhibitor, and analyzed target inhibition and potential signaling pathway crosstalks after 2, 4, 8 and 20 h hours of treatment. […] While RAD001 readily activated JAK2 starting at 4 hours of treatment, they observed a later response with BKM120 treatment starting at 8 hours after adding the compound. […]

IL-8 = IL-8 levels in dissected primary triple-negative breast tumors or plasma of mice (ELISA); type: in vivo, human; details: day 3 of treatment with 30 mg/kg BEZ235 vs vehicle
Method: FIG. 5. BEZ235 treatment activates JAK2/STAT5 and IL-8 secretion in human primary triple-negative breast tumors Bar graphs showing IL-8 levels measured by ELISA in the dissected tumors from or in the plasma of mice at day 3 of treatment with 30 mg/kg BEZ235 or vehicle (VHC). Results represent means±SEM (n=3-4, *P<0.05). For assessing pJAK2 levels, an ELISA assay ([…]/1008, Invitrogen) was applied because of cross-reactivity of all pJAK2 antibodies tested. Interleukin-8 levels in RIPA lysates, cell culture supernatants and mouse tail vein blood plasma were measured by ELISA, as well (Biolegend). Cytokine arrays on cell culture supernatants and mouse tumor lysates were performed according the manufacture's protocol (R & D systems, Human and Mouse cytokine array panel A). […] Tumors were measured every 3 to 4 days with vernier calipers, and tumor volumes were calculated by the formula 0.5×(larger diameter)×(smaller diameter)^2. End point tumor sizes were analyzed for synergism using the formula AB/C<A/C×B/C, where C=tumor volume VHC, A=tumor volume compound 1, B=tumor volume compound 2, AB=tumor volume combination (Clarke, 1997).

Structure (SMILES): Cn1c(=O)n(-c2ccc(C(C)(C)C#N)cc2)c2c3cc(-c4cnc5ccccc5c4)ccc3ncc21 [COMPOUND A, 2-methyl-2-[4-(3-methyl-2-oxo-8-quinolin-3-yl-2,3-dihydro-imidazo[4,5-c]quinolin-1-yl)-phenyl]-propionitrile]
- pS6 levels (pS6): completely blocked
- IL-8 secretion (IL-8 levels in tumors or plasma) (IL-8): activates
